Assay results: patent publication US20180369087A1, “Hydrogen Peroxide Booster System for Enhanced Teeth Whitening” (Colgate-Palmolive Company, priority 2015, published 2018)

Experiment: SNOBS stability in anhydrous formulation, HPLC
Type: physicochemical
Conditions: for % SNOBS: composition of Table 5
Procedure: The composition of Table 5 was aged at 40° C. and at room temperature for 8 weeks and 13 weeks respectively. The percentage of SNOBS remaining was quantified by HPLC. The results in Table 6 indicate that there is sufficient SNOBS remaining in the composition after aging at both room temperature and at 40° C. to be efficacious as a booster for the peroxide component in a tooth whitening composition.

For CCCCCCCCC(=O)Oc1ccc(S(=O)(=O)[O-])cc1.[Na+] [SNOBS, sodium nonanoyloxybenzenesulfonate], the “% Loss of SNOBS” value (4 weeks/40° C.) was 3.1%, the % SNOBS (4 weeks/40° C.) was 9.36% and the “% Loss of SNOBS” value (8 weeks/40° C.) was 6.4%. For the same compound, the “% SNOBS” value (8 weeks/40° C.) was 8.99%, the “% Loss of SNOBS” value (13 weeks/Room Temperature (RT)) was 4.06% and the “% SNOBS” value (13 weeks/Room Temperature (RT)) was 9.21%. For the same compound, the “% SNOBS” value (Initial) was 9.6%.
